# Laboratory results as given in patent US20170226139A1, “CRYSTALLINE SALTS OF (Z)-O-OCTADEC-9-EN-1-YL O,O-DIHYDROGEN PHOSPHOROTHIOATE” (priority 2013, published 2017).
# “Also recorded” adds a separate entry of the source.
# Experiments:
# [1] = system: lysophosphatidic acid receptor (LPAR); assay: Calcium-mobilization assay, overall statements for all species and LPAR subtypes tested; format: cell-based
# Text: The compound was medicinally designed as an LPA analog with the goal of decreasing the otherwise rapid metabolism of LPA itself. […] These receptors are ubiquitous by tissue and in those eukaryotes investigated. […] Thus, the mechanism of drug action for GI-ARS protection is activation of the transmembrane G protein-coupled lysophosphatidic acid receptor (LPAR) and, more specifically, the LPAR2 GPCR subtype. The primary pharmacodynamics is that LPAR2 activation leads to a cascade of intracellular events that switch cells from an apoptotic to a repair/regenerative pathway.
# We investigated structure-activity relationships across species, LPAR subtypes and between Rx100 and two known process impurities encountered in manufacture: Rx103 (‘E’ isomer) and Rx200 (oleyl phosphate and impurity, which can be an Rx100 degradant along with oleyl alcohol). Rx100, Rx103, Rx200 and native LPA were investigated at different human LPAR subtypes. In addition, the activity of these compounds was evaluated at LPA2 receptors from the rhesus, rat and mouse species. Human LPA1/2/3 subtypes were transfected into mouse embryonic fibroblasts (MEF) or rat hepatoma cells (RH7777)—both of which are normally non-responsive or null to LPA. Human LPA4 was transfected into Chinese hamster ovary (CHO) cells and LPA5 into the B103 neuroblastoma cell line. […] The B103 rat neuroblastoma cell line is endogenously nonresponsive to LPA but expresses heterologous LPA5 receptors well. […] LPAR activation elicits a G-protein-mediated transient rise in intracellular calcium level that is proportional to the concentration of LPA applied. The intracellular calcium level was quantified by the calcium-selective fluorescent indicator FURA-2 (e.g., increased intracellular calcium surge=increased fluorescence).
# Oleyl alcohol is, of course, a common component of many non-toxic ingested or dermally applied substances.
# [2] = Evaporative crystallization tests, XRPD; format: physicochemical; conditions: evaporated to dryness under vacuum at ambient conditions
# Description: Third, Evaporative Crystallization tests were performed. Based on the short term slurry experiments, all samples which experienced full dissolution were utilized for evaporative crystallizations. Samples were evaporated to dryness under vacuum at ambient conditions.
# [3] = Gravimetric moisture sorption analysis, with XRPD afterwards; format: physicochemical
# Description: Moisture sorption analysis of the Rx100.L-Lysine salt was performed by equilibrating the sample at 25° C. and 50% RH to simulate ambient lab conditions. Humidity then decreased to 0% RH, increased from 0 to 95% RH, reduced from 95 to 0% RH, increased from 0 to 95% RH and then decreased from 95 to 50% RH.
# [4] = Qualitative solubility of Rx100.L-Lysine salt in 13 additional solvents; format: physicochemical; conditions: for Observation (qualitative solubility): ~50 mg solid
# Text: The solubility of Rx100.L-Lysine salt was further tested in 13 additional solvents.
# [5] = system: male Sprague Dawley rats; assay: Central nervous system safety pharmacology, modified Irwin battery; format: in vivo; conditions: SC 1.81, 6.33 and 18.1 mg/kg; through 24 hours post-dose
# Description: Four groups of male Sprague Dawley rats (n=8/group) were administered Rx100.lysine via subcutaneous injection at doses of 0 (10 mM histidine in sterile water for Injection, USP), 1.81, 6.33 and 18.1 mg/kg as the free acid. Animals were assessed pre-dose and through 24 hours post-dose for a variety of behavioral, neurological and autonomic responses using the modified Irwin battery of assessments. Dose formulation analyses were conducted and samples ranged from 99 to 104% of target. The only effect observed was a small (0.8 to 1.5 degrees C.) decrease in body temperature noted at 2-4 hours postdose.
smiles,measurement,setting,value
"CCCCCCCC/C=C\CCCCCCCCOP(O)(O)=S [Rx100, (Z)—O-octadec-9-en-1-yl O,O-dihydrogen phosphorothioate]",LPAR activation,[1],pan lysophosphatidic acid receptor (LPAR) agonist; also recorded: substantially more in vitro activity
"CCCCCCCC/C=C\CCCCCCCCOP(O)(O)=S [Rx100.L-Lysine, (Z)—O-octadec-9-en-1-yl O,O-dihydrogen phosphorothioate]",Form by XRPD after evaporative crystallization,[2],no change in form
same,Hygroscopicity,[3],hygroscopic
same,Residual water content after desorption,[3],< 3%
same,Water adsorbed in moisture sorption analysis,"[3]; at 95% RH, 25° C.",20.6%
same,Form by XRPD after moisture sorption analysis,[3]; compared with Pattern A,no change in form
same,Observation (qualitative solubility),"[4]; Acetone:water (1:1), 0.5 mL added",dissolved
same,Observation (qualitative solubility),"[4]; Acetone, 0.75 mL added",slurry
same,Observation (qualitative solubility),"[4]; EtOH:water (1:1), 0.75 mL added",dissolved
same,Observation (qualitative solubility),"[4]; EtOH:water (8:2), 0.75 mL added",cloudy
same,Observation (qualitative solubility),"[4]; EtOH, 0.75 mL added",slurry
same,Qualitative solubility,[4]; IPA-water (1:1),soluble
same,Observation (qualitative solubility),"[4]; IPA:water (1:1), 0.75 mL added",dissolved
same,Observation (qualitative solubility),"[4]; IPA:water (8:2), 0.75 mL added",oil
same,Observation (qualitative solubility),"[4]; IPA, 0.75 mL added",slurry
same,Observation (qualitative solubility),"[4]; MeOH:water (1:1), 0.5 mL added",dissolved
same,Observation (qualitative solubility),"[4]; MeOH:water (8:2), 0.75 mL added",dissolved
same,Observation (qualitative solubility),"[4]; MeOH, 0.75 mL added",slurry
same,Observation (qualitative solubility),"[4]; THF:water (1:1), 0.5 mL added",oil
same,Observation (qualitative solubility),"[4]; THF, 0.75 mL added",slurry
same,Qualitative solubility,[4]; acetone:water (1:1),soluble
same,Qualitative solubility,[4]; ethanol:water (1:1),soluble
same,Qualitative solubility,[4]; methanol:water (1:1),soluble
same,Qualitative solubility,[4]; methanol:water (8:2),soluble
same,other parameters of the modified Irwin battery,[5],No other effects
